Reference: US20110262407A1, “TREATMENT WITH ALPHA7 SELECTIVE LIGANDS” (Targacept, Inc., priority 2008, published 2011)
pKi: −log10 of the molar value. Where two headings read alike, the source gives them in different places.

Key:
GP8.3 cells = assay: ionizing radiation damage to rat brain vasculature endothelial cells; assay type: cell-based
Description: Cells were cultured in α-MEM/Ham's F10, 10% FBS, 50 IU/mL penicillin, 50 μg/mL streptomycin, […] L-glutamine, and 250 μg/mL Geneticin and maintained in a humidified atmosphere containing 5% CO2 at 37° C. Intracellular reactive oxygen species (ROS) generation was measured in GP8.3 cells using 2′7′ dichlorodihydrofluorescein diacetate (DCFH-DA). Cells were incubated with 20 μM DCFH-DA in phosphate buffered saline (PBS) for 30 min prior to irradiation. The fluorescence intensity was measured at excitation wavelength 485 nm and emission wavelength 530 nm using a Bio-Tek FL500 microplate fluorescence reader. Western blot analysis: GP8.3 cells were collected following treatment and protein was separated by polyacrylamide gel electrophoresis (PAGE) on a 12% gel. Primary goat anti-ICAM-1 and mouse anti-β-actin were used. The secondary antibody was horse radish peroxidase (HRP)-conjugated secondary antibodies. Northern blot analysis: Total RNA was isolated using Tri-ZOL reagent. cDNA probes were labeled with α32P-dCTP by the random primer extension method. The cDNA of rat ICAM-1 was synthesized. Cell viability was determined using a modified 3-(4,5-Dimethylthiazol-2-yl)-2,5-Diphenyltetrazolium Bromide (MTT) assay. Briefly, 5,000 cells/well were plated in 24-well plates and incubated overnight. […] At the end of the follow-up period, cells were incubated with MTT in PBS for 4 h. Cell lysis detergent (20% SDS and 50% dimethylformamide, pH 4.7, in PBS) was then added and the plates incubated overnight at 37° C. A 100 μl aliquot of the soluble fraction was then transferred to 96-well microplates, and the absorbance at 570 nm measured using an Enzyme-Linked ImmunoSorbent Assay (ELISA) plate reader.

[1] = tested on: hippocampal progenitor cells; conditions: for magnitude of increase in proliferation of hippocampal progenitor cells: oral gavage, vs vehicle; for proliferation of progenitor cells in the hippocampus: 129SvEv mice
Description: Since new neurons develop from the progenitor cells in the hippocampus, measuring the proliferation of this cell population may be used as an indicator of the full neurogenesis process. Hippocampal neurogenesis can be evaluated by measuring the incorporation of deuterium from heavy water into the DNA of progenitor cells and the rate of label incorporation reflects the rate of cellular proliferation. Fluoxetine, a known neurogenic antidepressant, was used as the positive control and as a comparator to the nicotinic ligands.
Mice were labeled for the last 10-11 days of the drug treatment period. Tissue processing and analysis: At the end of treatment and label, mice were sacrificed, the hippocampus was dissected from the brain and digested with papain and progenitor cells were isolated by Percoll fractionation. DNA was purified from the isolated progenitor cells using a DNEasy tissue kit (Qiagen, Valencia, Calif.), then processed and analyzed by GC/MS. DNA was enzymatically hydrolyzed to free deoxyribonucleosides, and the deoxyribose moiety of purine deoxyribonucleosides was converted to the pentafluorobenzyl triacetate derivative. […] Incorporation of ^2H into purine deoxyribose was quantified as the molar excess fraction M1 (EM1), i.e. the increase over natural abundance (background), determined from the fractional M1 value in unlabeled DNA standards from calf thymus.
Concurrent analysis of DNA from bone marrow cells, which are fully turned over in 1 week provides an internal reference factor in each animal to correct for variations in body water ^2H enrichment. The fraction of newly divided progenitor cells was calculated as the ratio of EM1 in purine deoxyribose from progenitor cell DNA to the corresponding EM1 from enrichment in bone marrow DNA.

microglia = conditions: mice
Excerpt: The proliferation of microglial cells is an early event in the activation process in animal models of neuroinflammation. Microglial activation is thought to contribute to the pathology of many CNS neuro-inflammatory and neurodegenerative disorders.

[2] = tested on: other nicotinic receptors, including alpha4beta2; assay: binding affinity for other nicotinic receptors ([3H]-nicotine binding)
alpha7 nAChR = molecular target: T1, alpha7 nAChR (Rattus norvegicus, UniProt Q05941); assay: displacement studies using 3H-MLA in rat hippocampal tissues; assay type: binding
T1 construct: displacement studies using ^3H-MLA in rat hippocampal tissues; from tissue; host or cells: rat hippocampus
T1 sequence (Q05941 23-502): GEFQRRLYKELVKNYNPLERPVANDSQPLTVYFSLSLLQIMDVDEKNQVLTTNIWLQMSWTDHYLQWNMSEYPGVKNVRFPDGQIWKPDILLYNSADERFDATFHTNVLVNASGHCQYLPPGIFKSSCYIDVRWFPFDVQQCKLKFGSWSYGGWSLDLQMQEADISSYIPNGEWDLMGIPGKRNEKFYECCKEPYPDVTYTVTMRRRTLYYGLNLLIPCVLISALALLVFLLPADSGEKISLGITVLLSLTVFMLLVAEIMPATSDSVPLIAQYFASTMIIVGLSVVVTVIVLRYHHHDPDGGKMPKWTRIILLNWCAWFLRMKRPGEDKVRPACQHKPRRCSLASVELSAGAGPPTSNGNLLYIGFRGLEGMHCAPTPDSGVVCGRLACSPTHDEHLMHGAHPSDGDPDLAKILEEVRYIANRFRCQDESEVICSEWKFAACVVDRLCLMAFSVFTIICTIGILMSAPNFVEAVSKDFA

[3] = molecular target: T2, human alpha7 nicotinic receptors (Homo sapiens, UniProt P36544); assay: electrophysiology functional assay in Xenopus laevis oocytes; assay type: cell-based
T2 construct: expressed in transfected cells; host or cells: Xenopus laevis oocytes (transient expression)
T2 sequence (P36544 23-502): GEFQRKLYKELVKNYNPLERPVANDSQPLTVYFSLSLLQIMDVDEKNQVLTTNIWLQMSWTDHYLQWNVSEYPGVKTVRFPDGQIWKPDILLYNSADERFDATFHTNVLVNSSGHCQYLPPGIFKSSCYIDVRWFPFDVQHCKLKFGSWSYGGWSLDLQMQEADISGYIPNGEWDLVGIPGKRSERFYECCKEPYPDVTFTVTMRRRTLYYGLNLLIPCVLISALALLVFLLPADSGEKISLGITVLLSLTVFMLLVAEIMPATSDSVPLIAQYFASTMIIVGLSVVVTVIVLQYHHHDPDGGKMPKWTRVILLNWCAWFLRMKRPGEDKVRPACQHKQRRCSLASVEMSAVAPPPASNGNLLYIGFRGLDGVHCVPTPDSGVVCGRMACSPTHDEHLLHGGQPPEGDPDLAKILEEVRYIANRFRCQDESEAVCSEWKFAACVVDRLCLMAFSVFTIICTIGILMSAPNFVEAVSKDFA

PC12 cells = assay: neuroprotection against Abeta(1-42) in PC12 cells; assay type: cell-based, rat
Excerpt: It has been shown that nicotine-induced complex formation between the alpha7 nicotinic acetylcholine receptor (nAChR) and the tyrosine-phosphorylated enzyme Janus kinase 2 (JAK2) results in subsequent activation of phosphatidylinositol-3-kinase (PI-3-K) and Akt. Nicotine interaction with the alpha7 nAChR inhibits Aβ (1-42) interaction with the same receptor, and Aβ (1-42)-induced apoptosis is prevented through nicotine-induced activation of JAK2. These effects can be shown by measuring markers of cytotoxicity, including the cleavage of the nuclear protein poly(ADP-ribose) polymerase (PARP), the induction of caspase 3, or cell viability.
PC12, rat pheochromocytoma cells, were maintained in proliferative growth phase in Dulbecco's modified Eagle's medium supplemented with 10% horse serum, 5% fetal calf serum, and antibiotics (penicillin/streptomycin). Apoptosis was determined by assessing the cleavage of the DNA-repairing enzyme PARP using a Western blot assay. […] Caspase 3 enzyme activity was determined with a fluorogenic substrate for caspase-3 in crude PC12 cell extracts. […] The substrate emits a blue fluorescence when excited at a wavelength of 360 nm. When cleaved from the peptide by the caspase 3 enzyme activity in the cell lysate, free 7-amino-4-methyl Coumarin is released and can be detected by its yellow/green emission at 460 nm. […]

alpha4beta2 = alpha4beta2 (Homo sapiens, UniProt P17787+P43681); assay: functional agonism at alpha4beta2
Sequence of alpha4beta2 (P43681 29-627 limits assumed): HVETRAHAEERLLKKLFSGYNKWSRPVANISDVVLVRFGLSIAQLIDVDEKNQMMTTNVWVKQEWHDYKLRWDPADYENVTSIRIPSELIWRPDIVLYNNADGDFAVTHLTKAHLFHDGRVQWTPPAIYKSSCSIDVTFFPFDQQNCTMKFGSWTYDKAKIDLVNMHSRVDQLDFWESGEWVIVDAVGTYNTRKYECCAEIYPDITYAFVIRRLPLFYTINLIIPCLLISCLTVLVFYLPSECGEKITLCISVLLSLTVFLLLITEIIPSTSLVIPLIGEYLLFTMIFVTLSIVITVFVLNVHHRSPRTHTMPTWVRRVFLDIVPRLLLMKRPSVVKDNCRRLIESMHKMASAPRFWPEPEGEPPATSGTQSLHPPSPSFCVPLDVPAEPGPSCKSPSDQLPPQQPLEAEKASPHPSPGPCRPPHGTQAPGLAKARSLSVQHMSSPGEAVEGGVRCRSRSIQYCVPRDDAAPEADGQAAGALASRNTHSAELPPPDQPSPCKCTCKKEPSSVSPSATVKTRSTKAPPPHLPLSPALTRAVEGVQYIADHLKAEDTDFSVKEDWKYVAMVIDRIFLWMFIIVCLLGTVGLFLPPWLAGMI
Sequence of alpha4beta2 (P17787 26-502): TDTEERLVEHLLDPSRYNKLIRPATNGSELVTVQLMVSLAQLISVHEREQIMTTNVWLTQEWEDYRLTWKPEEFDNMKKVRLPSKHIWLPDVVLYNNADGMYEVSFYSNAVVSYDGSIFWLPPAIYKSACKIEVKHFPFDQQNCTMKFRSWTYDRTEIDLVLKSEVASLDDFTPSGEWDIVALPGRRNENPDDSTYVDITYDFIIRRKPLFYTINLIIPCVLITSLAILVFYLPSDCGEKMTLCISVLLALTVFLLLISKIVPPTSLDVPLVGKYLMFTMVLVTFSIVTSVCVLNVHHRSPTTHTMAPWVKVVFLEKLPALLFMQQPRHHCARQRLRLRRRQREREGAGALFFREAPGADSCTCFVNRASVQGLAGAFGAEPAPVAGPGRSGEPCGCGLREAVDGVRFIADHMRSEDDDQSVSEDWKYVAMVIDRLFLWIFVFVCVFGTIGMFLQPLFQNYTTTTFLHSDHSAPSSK
Excerpt: […]. […] […]

SMILES: Cc1ccc(C(=O)N[C@@H]2C3CCN(CC3)[C@H]2Cc2cccnc2)s1 [Compound A, 5-methyl-N-[(2S,3R)-2-(pyridin-3-ylmethyl)-1-azabicyclo[2.2.2]oct-3-yl]thiophene-2-carboxamide]
- radiation-induced up-regulation of ICAM1 mRNA and protein (GP8.3 cells; pre-incubation (10 μM per FIG. 7)): ameliorated
- radiation-induced up-regulation of ROS (GP8.3 cells; pre-incubation (10 μM per FIG. 8)): abolished
- radiation-induced up-regulation of IL-6 mRNA and protein (GP8.3 cells; pre-incubation with 10 μM): abolished
- magnitude of increase in proliferation of hippocampal progenitor cells ([1]; 0.1 mg/kg, 3 weeks): 36%
- magnitude of increase in proliferation of hippocampal progenitor cells ([1]; 0.3 mg/kg, 3 weeks): 24%
- magnitude of increase in proliferation of hippocampal progenitor cells ([1]; 1 mg/kg, 3 weeks): 30%
- proliferation of progenitor cells in the hippocampus ([1]; repeat administration 0.1-1 mg/kg/day p.o.): increase the proliferation of progenitor cells
- LPS-induced neuroinflammation (microglial proliferation) (microglia; 1 mg/kg p.o.): decreased LPS-induced neuroinflammation

SMILES: c1cncc(C2CCC3CCN2CC3)c1 (centres unmarked) [Compound B, 2-(3-pyridinyl)-1-azabicyclo[3.2.2]nonane]
- binding to alpha4beta2 [2]: binds to alpha4beta2
- pKi (alpha7 nAChR): 8.70 to 9.00
- Emax [3]: > 50%
- cell survival in PC-12 cells exposed to lethal amounts of Abeta(1-42) (PC12 cells; FIG. 10): neuroprotective
- neuroprotection against Aβ (1-42) via JAK2/PI-3K cascade (PARP cleavage) (PC12 cells; PC12 cells): exerts neuroprotective effects
- functional agonism at alpha4beta2 (alpha4beta2): not functionally agonistic

SMILES: CN1CCCC1c1cccnc1 (centres unmarked) [Compound C, nicotine, reference compound]
- binding to alpha4beta2 [2]: high affinity
- affinity for alpha7 nAChR (alpha7 nAChR; displacement of [3H]-MLA): high affinity
- proliferation of progenitor cells in the hippocampus ([1]; repeat administration 1 mg/kg/day p.o.): increase the proliferation of progenitor cells
- LPS-induced neuroinflammation (microglial proliferation) (microglia; 0.1 mg/kg p.o.): decreased LPS-induced neuroinflammation

SMILES: CNCCC(Oc1ccc(C(F)(F)F)cc1)c1ccccc1 (centres unmarked) [fluoxetine, Fluoxetine, reference compound]
- increase in proliferation of hippocampal progenitor cells ([1]; 10 mg/kg po, 3 weeks, positive control): 35%

SMILES: CNC1(C)C2CCC(C2)C1(C)C (centres unmarked) [mecamylamine, reference compound]
- effect on the Compound A-induced changes (IL-6, ICAM-1, ROS) (GP8.3 cells; antagonist with Compound A): reversed
